Each block holds one molecule with its values, some of them ahead of it.
Columns and labels:
Homo sapiens [1] = species on record: Homo sapiens; assay: Binding affinity to folate receptor in human KB cells after 1 hr in presence of [3H]-FA by scintillation counting assay relative to control; format: cell-based
LNCaP = assay: Growth inhibition of PSMA-positive human LNCAP cells; format: functional, cell-based
[2] = Half life in pH 7.4 buffer at 37 degC in presence of 8 mM DTT; format: physicochemical; settings: pH 7.4 buffer with 8 mM DTT
[3] = Half life in pH 7.4 buffer at 37 degC in presence of GSH; format: physicochemical; settings: pH 7.4 buffer with GSH
[4] = Drug metabolism assessed as half life for N-hydroxyethylvindesine release at pH 7.4
[5] = Drug metabolism assessed as half life for N-hydroxyethylvindesine release at pH 5
KB [6] = assay: Antitumor activity against human KB cells xenografted in mouse assessed as complete tumor reversion incidence at 0.5 umol/kg; format: functional
KB [7] = assay: Growth inhibition of human KB cells; format: functional, cell-based
[8] = Drug metabolism assessed as half life for cleavage of disulfide bond at 1 mM pH 7.4 PBS in presence of 20 mM GSH at 37 degC
Homo sapiens [9] = species on record: Homo sapiens; assay: Antitumor activity against NSCLC patients assessed as overall survival in presence of docetaxel in phase 2b clinical trial; format: functional
[10] = Drug metabolism assessed as half life for cleavage of disulfide bond at 1 mM pH 7.4 PBS in presence of DTT at 37 degC
Homo sapiens [11] = species on record: Homo sapiens; assay: Antitumor activity against NSCLC patients assessed as progression-free survival in presence of docetaxel in phase 2b clinical trial; format: functional
[12] = Prodrug conversion assessed as half life for parent compound release at pH 5; format: ADME

Compound: Nc1nc(=O)c2nc(CNc3ccc(C(=O)N[C@@H](CCC(=O)O)C(=O)O)cc3)cnc2[nH]1
- relative binding affinity (RBA) (Homo sapiens [1]): 1

Compound: CCCC(=O)OCN(C(=O)[C@@H](NC(=O)[C@H]1CCCCN1C)[C@@H](C)CC)[C@H](C[C@@H](OC(C)=O)c1nc(C(=O)N[C@@H](Cc2ccc(O)cc2)C[C@H](C)C(=O)NNC(=O)OCCSSC[C@H](NC(=O)[C@H](Cc2ccccc2)NC(=O)[C@H](CC(=O)O)NC(=O)CC[C@H](NC(=O)CC[C@@H](NC(=O)N[C@@H](CCC(=O)O)C(=O)O)C(=O)O)C(=O)O)C(=O)O)cs1)C(C)C
- IC50 (LNCaP): 3 nM

Compound: CC[C@]1(O)C[C@H]2CN(CCc3c([nH]c4ccccc34)[C@@](C(=O)OC)(c3cc4c(cc3OC)N(C)[C@H]3[C@@](O)(C(=O)NNC(=O)OCCSSC[C@H](NC(=O)c5ccc(NCc6cnc7nc(N)[nH]c(=O)c7n6)cc5)C(=O)O)[C@H](O)[C@]5(CC)C=CCN6CC[C@]43[C@@H]65)C2)C1
- relative binding affinity (RBA) (Homo sapiens [1]): 0.046

- half-life [2]: < 5 min
- half-life [3]: 45 min
Compound: CC[C@]1(O)C[C@H]2CN(CCc3c([nH]c4ccccc34)[C@@](C(=O)OC)(c3cc4c(cc3OC)N(C)[C@H]3[C@@](O)(C(=O)NNC(=O)OCc5ccc(SSC[C@H](NC(=O)[C@H](CC(=O)O)NC(=O)[C@H](CC(=O)O)NC(=O)[C@H](CCCNC(=N)N)NC(=O)[C@H](CC(=O)O)NC(=O)CC[C@H](NC(=O)c6ccc(NCc7cnc8nc(N)[nH]c(=O)c8n7)cc6)C(=O)O)C(=O)O)cc5)[C@H](O)[C@]5(CC)C=CCN6CC[C@]43[C@@H]65)C2)C1

Compound: CC[C@]1(O)C[C@H]2CN(CCc3c([nH]c4ccccc34)[C@@](C(=O)OC)(c3cc4c(cc3OC)N(C)[C@H]3[C@@](O)(C(=O)NCCOC(OC)c5ccc(OCCN6C(=O)CC(SC[C@H](NC(=O)[C@H](CC(=O)O)NC(=O)[C@H](CC(=O)O)NC(=O)[C@H](CCCNC(=N)N)NC(=O)[C@H](CC(=O)O)NC(=O)CC[C@H](NC(=O)c7ccc(NCc8cnc9nc(N)[nH]c(=O)c9n8)cc7)C(=O)O)C(=O)O)C6=O)cc5)[C@H](O)[C@]5(CC)C=CCN6CC[C@]43[C@@H]65)C2)C1 (some centres undefined)
- T1/2 [4]: 1320 min
- T1/2 [5]: 25 min

Compound: CCCC(=O)OCN(C(=O)[C@@H](NC(=O)[C@H]1CCCCN1C)[C@@H](C)CC)[C@H](C[C@@H](OC(C)=O)c1nc(C(=O)N[C@@H](Cc2ccc(O)cc2)C[C@H](C)C(=O)NNC(=O)OCCSSC[C@H](NC(=O)[C@H](CC(=O)O)NC(=O)[C@H](CC(=O)O)NC(=O)[C@H](CCCNC(=N)N)NC(=O)[C@H](CC(=O)O)NC(=O)CC[C@H](NC(=O)c2ccc(NCc3cnc4nc(N)[nH]c(=O)c4n3)cc2)C(=O)O)C(=O)O)cs1)C(C)C
- Activity (KB [6]): 80%
- IC50 (KB [7]): 7 nM

- half-life [2]: 60 min
Compound: CC[C@]1(O)C[C@H]2CN(CCc3c([nH]c4ccccc34)[C@@](C(=O)OC)(c3cc4c(cc3OC)N(C)[C@H]3[C@@](O)(C(=O)NNC(=O)OCCSSC(C)(C)[C@H](NC(=O)[C@H](CC(=O)O)NC(=O)[C@H](CC(=O)O)NC(=O)[C@H](CCCNC(=N)N)NC(=O)[C@H](CC(=O)O)NC(=O)CC[C@H](NC(=O)c5ccc(NCc6cnc7nc(N)[nH]c(=O)c7n6)cc5)C(=O)O)C(=O)O)[C@H](O)[C@]5(CC)C=CCN6CC[C@]43[C@@H]65)C2)C1

- half-life [2]: 30 min
Compound: CC[C@]1(O)C[C@H]2CN(CCc3c([nH]c4ccccc34)[C@@](C(=O)OC)(c3cc4c(cc3OC)N(C)[C@H]3[C@@](O)(C(=O)NNC(=O)OC(C)C(C)SSC[C@H](NC(=O)[C@H](CC(=O)O)NC(=O)[C@H](CC(=O)O)NC(=O)[C@H](CCCNC(=N)N)NC(=O)[C@H](CC(=O)O)NC(=O)CC[C@H](NC(=O)c5ccc(NCc6cnc7nc(N)[nH]c(=O)c7n6)cc5)C(=O)O)C(=O)O)[C@H](O)[C@]5(CC)C=CCN6CC[C@]43[C@@H]65)C2)C1 (some centres undefined)

Compound: CC[C@]1(O)C[C@H]2CN(CCc3c([nH]c4ccccc34)[C@@](C(=O)OC)(c3cc4c(cc3OC)N(C)[C@H]3[C@@](O)(C(=O)NNC(=O)OCCSSC[C@H](NC(=O)[C@H](CC(=O)O)NC(=O)[C@H](CC(=O)O)NC(=O)[C@H](CCCNC(=N)N)NC(=O)[C@H](CC(=O)O)NC(=O)CC[C@H](NC(=O)c5ccc(NCc6cnc7nc(N)[nH]c(=O)c7n6)cc5)C(=O)O)C(=O)O)[C@H](O)[C@]5(CC)C=CCN6CC[C@]43[C@@H]65)C2)C1
- T1/2 [8]: 60 min
- Survival (Homo sapiens [9]): 10.9 months
- T1/2 [10]: 5 min
- relative binding affinity (RBA) (Homo sapiens [1]): 0.47
- Survival (Homo sapiens [11]): 7.1 months

- half-life [2]: > 480 min
Compound: CC[C@]1(O)C[C@H]2CN(CCc3c([nH]c4ccccc34)[C@@](C(=O)OC)(c3cc4c(cc3OC)N(C)[C@H]3[C@@](O)(C(=O)NNC(=O)OC(C)C(C)SSC(C)(C)[C@H](NC(=O)[C@H](CC(=O)O)NC(=O)[C@H](CC(=O)O)NC(=O)[C@H](CCCNC(=N)N)NC(=O)[C@H](CC(=O)O)NC(=O)CC[C@H](NC(=O)c5ccc(NCc6cnc7nc(N)[nH]c(=O)c7n6)cc5)C(=O)O)C(=O)O)[C@H](O)[C@]5(CC)C=CCN6CC[C@]43[C@@H]65)C2)C1 (some centres undefined)

Compound: CC[C@]1(O)C[C@H]2CN(CCc3c([nH]c4ccccc34)[C@@](C(=O)OC)(c3cc4c(cc3OC)N(C)[C@H]3[C@@](O)(C(=O)N/N=C(\C)c5ccc(N6C(=O)CC(SC[C@H](NC(=O)[C@H](CC(=O)O)NC(=O)[C@H](CC(=O)O)NC(=O)[C@H](CCCNC(=N)N)NC(=O)[C@H](CC(=O)O)NC(=O)CC[C@H](NC(=O)c7ccc(NCc8cnc9nc(N)[nH]c(=O)c9n8)cc7)C(=O)O)C(=O)O)C6=O)cc5)[C@H](O)[C@]5(CC)C=CCN6CC[C@]43[C@@H]65)C2)C1 (some centres undefined)
- t1/2 [12]: 330 min

Compound: CC[C@H](C)[C@H](NC(=O)[C@H]1CCCCN1C)C(=O)N(COC(=O)CC(C)C)[C@H](C[C@@H](OC(C)=O)c1nc(C(=O)N[C@@H](Cc2ccc(O)cc2)C[C@H](C)C(=O)NNC(=O)OCCSSC[C@H](NC(=O)[C@H](CC(=O)O)NC(=O)[C@H](CC(=O)O)NC(=O)[C@H](CCCNC(=N)N)NC(=O)[C@H](CC(=O)O)NC(=O)CC[C@H](NC(=O)c2ccc(NCc3cnc4nc(N)[nH]c(=O)c4n3)cc2)C(=O)O)C(=O)O)cs1)C(C)C
- Activity (KB [6]): 80%
